For data set [1], the system named is Smn protein. In words: Smn protein assay in cultured cells (SMN HTRF). Format: cell-based, human. As to conditions: 48 hours; for maximum fold (Fold) increase of Smn protein: SMA patient fibroblast cells, 7-point concentration data, fold increase relative to vehicle control (SMN HTRF); for EC1.5x (concentration giving 1.5-fold Smn protein increase): SMA Type 1 patient fibroblast cells (GM03813), 7-point concentration curve, SMN HTRF, concentration producing 1.5 times Smn protein vs DMSO vehicle control, read-out: EC1.5x for Smn protein expression. Put shortly:
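Lysates in RIPA with protease inhibitors are incubated overnight at room temperature with HTRF anti-SMN antibodies. EC1.5x is derived from fold increase in ΔF over vehicle.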
For orientation: Time-resolved FRET reads energy transfer from a long-lived donor to a nearby acceptor.

In data set [2] the test system is SMN2 minigene (full length SMN2 minigene mRNA containing SMN2 exon 7). Briefly: SMN2 minigene mRNA splicing RT-qPCR assay in cultured cells. The format is cell-based, human. Conditions: Homo sapiens, HEK293-H, read-out: EC1.5x for production of full length SMN2 mRNA. Put shortly:
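HEK293H cells stably carrying the SMN2-A minigene treated 24 h at 37° C with compound (DMSO, 200× stock), then lysed. Multiplex RT-qPCR (SMN primers 0.4 μM final; 40 cycles) measures full-length exon 7-containing minigene mRNA, normalized to GAPDH and to vehicle; EC1.5x derived and binned by stars.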
In general terms: Real-time PCR tracks product formation cycle by cycle.

Setting [3] is: HEK293H cells stably transfected with SMN2-A minigene, 24 hours, 7-point concentration curve, 1.5-fold relative to vehicle-treated cells.

Where two headings read alike, the source gives them in different places.

Consider `Cc1nccn2cc(-c3cc4ccc(N5CCN(C)CC5)cc4oc3=O)cc12` [Compound 557, 7-(4-methylpiperazin-1-yl)-3-(1-methylpyrrolo[1,2-a]pyrazin-7-yl)-2H-chromen-2-one], for which the melting point lay in the range of 190 to 192 °C. The “maximum fold (Fold) increase of Smn protein” value (“maximum fold (Fold) increase” for short) in data set [1] is “*** (fold increase between >1.35 and ≤1.5)”. Moreover, the EC (1.5-fold) in data set [2] (setting [3]) was in the range of 0.3 to 1 µM.

Compound `CC(=O)O.CC(=O)O.CC[C@H]1CN(c2ccc3cc(-c4cn5cc(C)nc(C)c5n4)c(=O)oc3c2)CCN1CC` [Compound 779, 7-[(3S)-3,4-diethylpiperazin-1-yl]-3-(6,8dimethylimidazo[1,2-a]pyrazin-2-yl)-2H-chromen-2-one acetate (1:2)] yielded a melting point of 170 to 174 °C. Moreover, in data set [1], the EC1.5x (concentration giving 1.5-fold Smn protein increase) was below 300 nM and the “maximum fold (Fold) increase” value is reported as “***** (fold increase >1.65)”. Besides, the EC (1.5-fold) in data set [2] (setting [3]) was below 0.1 µM.

`COc1cc(OC)cc(-c2cc3ccc(N4CCN[C@H](C)C4)cc3oc2=O)c1` [Compound 412, 3-(3,5-dimethoxyphenyl)-7-[(3R)-3-methylpiperazin-1-yl]-2H-chromen-2-one]: the melting point lay within 148 to 150 °C. The “maximum fold (Fold) increase” value in data set [1] is given as “* (maximum fold increase of ≤1.2)”. Also, the EC (1.5-fold) in data set [2] (setting [3]) lay in the range of 3 to 30 µM.

Turning to `Cc1ccc2nc(-c3cc4ccc(N5CCNC(C)(C)C5)cc4oc3=O)cn2c1` [Compound 222, 7-(3,3-dimethylpiperazin-1-yl)-3-(6-methylimidazo[1,2-a]pyridin-2-yl)-2H-chromen-2-one], the melting point fell in the range of 177 to 180 °C. For the same compound, the “maximum fold (Fold) increase” value in data set [1] is recorded as “* (maximum fold increase of ≤1.2)”. The EC (1.5-fold) in data set [2] (setting [3]) is 1 to 3 µM.

As to `CN1CCN(c2ccc3cc(-c4nc5ccccc5s4)c(=O)oc3c2)CC1` [Compound 16, 3-(1,3-benzothiazol-2-yl)-7-(4-methylpiperazin-1-yl)-2H-chromen-2-one], the melting point lay within 259 to 262 °C. The “maximum fold (Fold) increase” value in data set [1] was “** (fold increase between >1.2 and ≤1.35)”. Besides, in data set [2] (setting [3]), the EC (1.5-fold) lay within 0.3 to 1 µM.

As to `Cc1cn2cc(-c3cc4ccc(N5C[C@@H]6C[C@H]5CN6)cc4oc3=O)nc2cn1` [Compound 623, 7-[(1S,4S)-2,5-diazabicyclo[2.2.1]hept-2-yl]-3-(6-methylimidazo[1,2-a]pyrazin-2-yl)-2H-chromen-2-one], the melting point lay in the range of 225 to 227 °C. Moreover, in data set [1], the EC1.5x (concentration giving 1.5-fold Smn protein increase) was in the range of 300 to 1000 nM; the “maximum fold (Fold) increase” value was “*** (fold increase between >1.35 and ≤1.5)”. Also, the EC (1.5-fold) in data set [2] (setting [3]) was below 0.1 µM.

Consider `Cc1ccn2nc(-c3cc4ccc(N5CCCNCC5)cc4oc3=O)cc2c1` [Compound 309, 7-(1,4-diazepan-1-yl)-3-(5-methylpyrazolo[1,5-a]pyridin-2-yl)-2H-chromen-2-one], for which the melting point was 203 to 206 °C. The “maximum fold (Fold) increase” value in data set [1] is “** (fold increase between >1.2 and ≤1.35)”. In addition, the EC (1.5-fold) in data set [2] (setting [3]) fell in the range of 0.3 to 1 µM.

In the case of `Cc1cn2cc(-c3cc4ccc(N5CCN(C(C)C)[C@@H](C)C5)cc4oc3=O)cc2c(C)n1` [Compound 768, 3-(1,3-dimethylpyrrolo[1,2-a]pyrazin-7-yl)-7-[(3S)-3-methyl-4-(propan-2-yl)piperazin-1-yl]-2H-chromen-2-one], the melting point was 153 to 156 °C. In data set [1], the EC1.5x (concentration giving 1.5-fold Smn protein increase) was below 300 nM; the “maximum fold (Fold) increase” value was “**** (fold increase between >1.5 and ≤1.65)”. In addition, the EC (1.5-fold) in data set [2] (setting [3]) was below 0.1 µM.

`Cc1ccc2nc(-c3cc4ccc(N(C)CCN(C)C)cc4oc3=O)cn2c1` [Compound 175, 7-{[2-(dimethylamino)ethyl](methyl)amino}-3-(6-methylimidazo[1,2-a]pyridin-2-yl)-2H-chromen-2-one]: the melting point was 140 to 180 °C (dec.). Besides, in data set [1], the “maximum fold (Fold) increase” value is on record as “* (maximum fold increase of ≤1.2)”. The EC (1.5-fold) in data set [2] (setting [3]) is 3 to 30 µM.

`CCc1cn2cc(-c3cc4ccc(N5CCCNCC5)cc4oc3=O)nc2s1` [Compound 430, 7-(1,4-diazepan-1-yl)-3-(2-ethylimidazo[2,1-b][1,3]thiazol-6-yl)-2H-chromen-2-one] had a melting point of 185 to 189 °C. For the same compound, the “maximum fold (Fold) increase” value in data set [1] was “* (maximum fold increase of ≤1.2)”. Also, the EC (1.5-fold) in data set [2] (setting [3]) is 1 to 3 µM.

For `Cc1cn2cc(-c3cc4ccc(N5C[C@H]6CCCN[C@H]6C5)cc4oc3=O)nc2c(C)n1` [Compound 655, 3-(6,8-dimethylimidazo[1,2-a]pyrazin-2-yl)-7-[(4aR,7aR)-octahydro-6H-pyrrolo[3,4-b]pyridin-6-yl]-2H-chromen-2-one], the melting point is 259 to 269 °C. In data set [1], the EC1.5x (concentration giving 1.5-fold Smn protein increase) was below 300 nM; the “maximum fold (Fold) increase” value is “**** (fold increase between >1.5 and ≤1.65)”. In addition, the EC (1.5-fold) in data set [2] (setting [3]) was below 0.1 µM.

As to `O=c1oc2cc(N3CCN(CCO)CC3)ccc2cc1-c1cn2cccc(Cl)c2n1` [Compound 121, 3-(8-chloroimidazo[1,2-a]pyridin-2-yl)-7-[4-(2-hydroxyethyl)piperazin-1-yl]-2H-chromen-2-one], the melting point fell in the range of 247 to 250 °C. For the same compound, the “maximum fold (Fold) increase” value in data set [1] is “*** (fold increase between >1.35 and ≤1.5)”. In addition, the EC (1.5-fold) in data set [2] (setting [3]) lay within 0.3 to 1 µM.

As for `O=c1oc2cc(N3CCCNCC3)ccc2cc1-c1cn2cccc(Cl)c2n1` [Compound 212, 3-(8-chloroimidazo[1,2-a]pyridin-2-yl)-7-(1,4-diazepan-1-yl)-2H-chromen-2-one], the melting point is 170 to 173 °C. Further, in data set [1], the EC1.5x (concentration giving 1.5-fold Smn protein increase) fell in the range of 300 to 1000 nM; the “maximum fold (Fold) increase” value was “**** (fold increase between >1.5 and ≤1.65)”. Further, the EC (1.5-fold) in data set [2] (setting [3]) was 0.3 to 1 µM.

`O=c1oc2c(F)c(N3CCNCC3)ccc2cc1-c1ccccn1` [Compound 155, 8-fluoro-7-(piperazin-1-yl)-3-(pyridin-2-yl)-2H-chromen-2-one]: the melting point was 147 to 153 °C. The “maximum fold (Fold) increase” value in data set [1] is on record as “* (maximum fold increase of ≤1.2)”. In addition, in data set [2] (24 h), the EC (1.5-fold) was 3 to 30 µM.

As to `Cc1cn2cc(-c3cc4ccc(CCCNCc5ccccn5)cc4oc3=O)nc2c(C)n1` [Compound 935, 3-(6,8-dimethylimidazo[1,2-a]pyrazin-2-yl)-7-{3-[(pyridin-2-ylmethyl)amino]propyl}-2H-chromen-2-one], the melting point lay in the range of 177 to 180 °C. Further, in data set [1], the EC1.5x (concentration giving 1.5-fold Smn protein increase) was 300 to 1000 nM; the “maximum fold (Fold) increase” value was “**** (fold increase between >1.5 and ≤1.65)”. Also, in data set [2] (setting [3]), the EC (1.5-fold) lay within 0.1 to 0.3 µM.

Compound `Cc1cn2cc(-c3cc4ccc(N5CCN(C)[C@H](C)C5)cc4oc3=O)nc2cn1` [Compound 628, 7-[(3R)-3,4-dimethylpiperazin-1-yl]-3-(6-methylimidazo[1,2-a]pyrazin-2-yl)-2H-chromen-2-one] came in with a melting point of 256 to 258 °C. Further, in data set [1], the EC1.5x (concentration giving 1.5-fold Smn protein increase) was below 300 nM; the “maximum fold (Fold) increase” value was “**** (fold increase between >1.5 and ≤1.65)”. Moreover, in data set [2] (setting [3]), the EC (1.5-fold) was below 0.1 µM.

Turning to `O=c1oc2cc(N3CCNCC3)ccc2cc1-c1cn2cc(F)cc(F)c2n1` [Compound 532, 3-(6,8-difluoroimidazo[1,2-a]pyridin-2-yl)-7-(piperazin-1-yl)-2H-chromen-2-one], the melting point is 276 to 286 °C. Moreover, the “maximum fold (Fold) increase” value in data set [1] is recorded as “* (maximum fold increase of ≤1.2)”. In addition, in data set [2] (setting [3]), the EC (1.5-fold) lay in the range of 0.3 to 1 µM.

Consider `Cc1cccc2nc(-c3cc4ccc(N5CCNCC5)cc4oc3=O)cn12` [Compound 132, 3-(5-methylimidazo[1,2-a]pyridin-2-yl)-7-(piperazin-1-yl)-2H-chromen-2-one], for which the melting point lay in the range of 239 to 249 °C. For the same compound, the “maximum fold (Fold) increase” value in data set [1] is reported as “* (maximum fold increase of ≤1.2)”. In addition, the EC (1.5-fold) in data set [2] (setting [3]) was 1 to 3 µM.

Compound `CCN1CCN(c2ccc3cc(-c4cn5cc(C)nc(C)c5n4)c(=O)oc3c2)CC1` [Compound 621, 3-(6,8-dimethylimidazo[1,2-a]pyrazin-2-yl)-7-(4-ethylpiperazin-1-yl)-2H-chromen-2-one] displayed a melting point of 215 to 217 °C. In addition, in data set [1], the EC1.5x (concentration giving 1.5-fold Smn protein increase) is below 300 nM and the “maximum fold (Fold) increase” value is “***** (fold increase >1.65)”. Also, the EC (1.5-fold) in data set [2] (setting [3]) was below 0.1 µM.

Regarding `Cc1cc(F)c2nc(-c3cc4ccc(N5CCN[C@@H](C)C5)cc4oc3=O)cn2c1` [Cpd 421, 3-(8-fluoro-6-methylimidazo[1,2-a]pyridin-2-yl)-7-[(3S)-3-methylpiperazin-1-yl]-2H-chromen-2-one], the melting point lay within 250 to 255 °C. In data set [1], the EC1.5x (concentration giving 1.5-fold Smn protein increase) is below 300 nM; the “maximum fold (Fold) increase” value was “*** (fold increase between >1.35 and ≤1.5)”. Moreover, the EC (1.5-fold) in data set [2] (setting [3]) is below 0.1 µM.

On to `CN(C)c1ccc(-c2cc3ccc(N4CCNCC4)cc3oc2=O)cn1` [Compound 547, 3-[6-(dimethylamino)pyridin-3-yl]-7-(piperazin-1-yl)-2H-chromen-2-one], for which the melting point lay within 179 to 181 °C. In addition, in data set [1], the “maximum fold (Fold) increase” value is reported as “* (maximum fold increase of ≤1.2)”. The EC (1.5-fold) in data set [2] (setting [3]) is 3 to 30 µM.

By melting point is commonly meant the temperature, or range, at which the solid turns liquid.

Values taken from USRE47689E1, “Compounds for treating spinal muscular atrophy” (PTC Therapeutics, Inc., priority 2011, dated 2019).
